Measurements from US12522634B2, “Cyclophilin inhibitors and uses thereof” (Farsight Medical Technology (Shanghai) Co., Ltd., priority 2020, dated 2026).
Like-named read-outs stand apart in the source and are kept apart here. Starred links: 1 amine or outer side, 2 acyl side, 3 side chain; linkers in the order of their positions; H or OH if unused. Non-standard residues stand in square brackets, D forms with d. Residues, ends and D or L forms follow the SMILES beside them. ξ: configuration not given here. NMeBmt(3-oxo) = C/C=C/C[C@@H](C)C(=O)[C@H](NC)C(=O)O; MeBmt = C/C=C/C[C@@H](C)[C@@H](O)[C@H](NC)C(=O)O; ξThr(3S) = C[C@H](O[*:3])C(N[*:1])C(=O)[*:2]; X1 = CN([C@H](OCCN1CCOCC1)C(=O)[*:2])[*:1]; X2 = CN(C)CCO[C@H](C(=O)[*:2])N(C)[*:1]; NMeL = CN[C@@H](CC(C)C)C(=O)O; NMeV = CN[C@H](C(=O)O)C(C)C; Nva = CCC[C@H](N)C(=O)O

Experiments:
permeabilized HepG2 = experiment: Calcium retention capacity (CRC) assay in permeabilized HepG2; type: cell-based; conditions: Homo sapiens
Protocol: Calcium Retention Capacity (CRC) Assay in Permeabilized HepG2
HepG2 cells were permeabilised with 100 μM digitonin for 10 min in ice cold buffer containing 1 mM EGTA. Following two wash steps to remove the digitonin, the cells were plated into 96 well black and clear plates at 1e^6 cell per well in 180 μL assay buffer containing 0.5 μM Calcium Green 5N. Compounds dilutions were made in DMSO to 1000-fold the final concentration, diluted 1:100 in assay buffer and added to the assay as 20 μL per well. The assay buffer contained 5 mM glutamate and 2.5 mM malate. The cell plate was immediately run on the FLIPR Tetra™ which added 5 μL of 200 μM (5 μM) calcium chloride every 5 minutes whilst reading the plate every 3 seconds. The area under the curve at each concentration of compound was calculated. EC50 values were calculated.
The assay as described above measures the loss of inhibition based on the release of calcium, which is determined by increased intensity of fluorescence reporting of the calcium-binding dye used in the assay.

Human CypA = Human CypA (Homo sapiens (Human), UniProt P62937); experiment: Cyclophilin peptidyl-prolyl isomerase functional assay (PPIase), CypA; type: biochemical; conditions: human recombinant enzyme, 10° C.; read-out: Inhibition (Ki, nM) Human CypA
Protocol: (§1) The compounds were supplied as a dry powder or oils and made up as a 10 mM stock solution in 100% DMSO. Subsequent dilutions were made in 100% DMSO for use in all assays.
(§2) Measurements were performed using an Agilent 8453 spectrophotometer. Assay buffer was cooled to 10° C. (with stirring) in a precision glass cuvette and inhibitor was added from a DMSO stock solution to afford a final concentration of <1% DMSO. A blank spectrum was obtained and then enzyme and substrate were added and the change in absorbance measured over 5 min. A first order rate was fitted to the absorbance data to obtain a rate constant (first 10 to 15 s were eliminated due to mixing). The catalytic rate was calculated from the enzymatic rate minus the background rate. The enzymatic rate constant, determined in duplicate at each inhibitor concentration, was plotted against inhibitor concentration and a non-linear fit by SigmaPlot generated a Ki.

Human CypD = Human CypD (Homo sapiens (Human), UniProt P30405); experiment: Cyclophilin peptidyl-prolyl isomerase functional assay (PPIase), CypD; type: biochemical; conditions: human recombinant enzyme, 10° C.; read-out: Inhibition (Ki, nM) Human CypD
Protocol: as §1, §2

[1] = molecular target: recombinant Calcineurin (CaN) (Homo sapiens (Human), UniProt P63098+Q08209); experiment: Calcineurin phosphatase inhibition assay without cyclophilin A; type: biochemical; conditions: RII phosphopeptide substrate, read-out: CaN Inhibition (IC50, nM) − CypA
Protocol: as §1
(§3) Calcineurin Phosphatase Inhibition Assay with and without Cyclophilin A
(§4) This colorimetric 96 well assay is designed for inhibitor screening of recombinant Calcineurin (CaN). […] In a 96-well plate, two dilution series were prepared, one with the cyclophilin A enzyme (7-point) and another without (4-point). An assay buffer/calcineurin/calmodulin master mix was added followed by the phosphopeptide substrate (RII). After incubation at 30° C. the reaction was stopped by the addition of malachite green/molybdate reagent. The coloured complex formed with liberated phosphate was quantified by reading the absorbance at 620 nm. The blank corrected data was plotted against inhibitor concentration to determine an IC50 value.

[2] = molecular target: recombinant Calcineurin (CaN) (Homo sapiens (Human), UniProt P62937+P63098+Q08209); experiment: Calcineurin phosphatase inhibition assay with cyclophilin A; type: biochemical; conditions: RII phosphopeptide substrate, read-out: CaN Inhibition (IC50, nM) + CypA
Protocol: as §1, §3, §4

[3] = permeabilized HepG2, area under the curve, read-out: Calcium Retention Capacity EC50

Chain of Human CypD (P30405 30-207): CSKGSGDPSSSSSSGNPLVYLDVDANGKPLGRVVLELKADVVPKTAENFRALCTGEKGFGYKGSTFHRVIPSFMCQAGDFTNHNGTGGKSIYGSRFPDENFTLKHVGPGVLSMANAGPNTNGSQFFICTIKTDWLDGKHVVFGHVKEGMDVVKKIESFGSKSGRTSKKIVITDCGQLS

C/C=C/C[C@@H](C)[C@@H](O)[C@H]1C(=O)N[C@@H](CC)C(=O)N(C)[C@H](OCCN(C)C)C(=O)N(C)[C@@H](CC(C)C)C(=O)N[C@@H](C(C)C)C(=O)N(C)[C@@H](CC(C)C)C(=O)N[C@@H](C)C(=O)N[C@H](C)C(=O)N(C)[C@@H](CC(C)C)C(=O)N(C)[C@@H](CC(C)C)C(=O)N(C)[C@@H](C(C)C)C(=O)N1C [Compound 1, reference compound] showed an EC50 (permeabilized HepG2; HepG2, read-out: Calcium Retention Capacity EC50 (nM)) of 916 nM.
In the case of C/C=C/C[C@@H](C)[C@@H](O)[C@H]1C(=O)NC([C@H](C)O)C(=O)N(C)[C@H](OCCN(C)C)C(=O)N(C)[C@@H](CC(C)C)C(=O)N[C@@H](C(C)C)C(=O)N(C)[C@@H](CC(C)C)C(=O)N[C@@H](C)C(=O)N[C@H](C)C(=O)N(C)[C@@H](CC(C)C)C(=O)N(C)[C@@H](CC(C)C)C(=O)N(C)[C@@H](C(C)C)C(=O)N1C (stereo partly drawn) [Compound 2] (cyclo(A[dA][NMeL][NMeL][NMeV][MeBmt][ξThr(3S)][X2][NMeL]V[NMeL])), the EC50 (permeabilized HepG2; [3]) is reported as greater than 10000 nM, the Ki (Human CypA) is reported as 50 nM and the Ki (Human CypD) is reported as 78 nM. The IC50 [1] was greater than 10000 nM and the IC50 [2] was 5000 nM.
With C/C=C/C[C@@H](C)[C@@H](O)[C@H]1C(=O)N[C@@H](C(C)C)C(=O)N(C)[C@H](OCCN(C)C)C(=O)N(C)[C@@H](CC(C)C)C(=O)N[C@@H](C(C)C)C(=O)N(C)[C@@H](CC(C)C)C(=O)N[C@@H](C)C(=O)N[C@H](C)C(=O)N(C)[C@@H](CC(C)C)C(=O)N(C)[C@@H](CC(C)C)C(=O)N(C)[C@@H](C(C)C)C(=O)N1C [Compound 3] (cyclo(A[dA][NMeL][NMeL][NMeV][MeBmt]V[X2][NMeL]V[NMeL])) the EC50 (permeabilized HepG2; [3]) was 946 nM, the IC50 [1] was 5510 nM and the IC50 [2] was 1320 nM.
With C/C=C/C[C@@H](C)[C@@H](O)[C@H]1C(=O)N[C@@H](C(C)C)C(=O)N(C)[C@H](OCCN2CCOCC2)C(=O)N(C)[C@@H](CC(C)C)C(=O)N[C@@H](C(C)C)C(=O)N(C)[C@@H](CC(C)C)C(=O)N[C@@H](C)C(=O)N[C@H](C)C(=O)N(C)[C@@H](CC(C)C)C(=O)N(C)[C@@H](CC(C)C)C(=O)N(C)[C@@H](C(C)C)C(=O)N1C [Compound 4] (cyclo(A[dA][NMeL][NMeL][NMeV][MeBmt]V[X1][NMeL]V[NMeL])) the EC50 (permeabilized HepG2; [3]) was 320 nM, the IC50 [1] was 4190 nM and the IC50 [2] was 1320 nM.
Compound C/C=C/C[C@@H](C)C(=O)[C@H]1C(=O)N[C@@H](C(C)C)C(=O)N(C)[C@H](OCCN(C)C)C(=O)N(C)[C@@H](CC(C)C)C(=O)N[C@@H](C(C)C)C(=O)N(C)[C@@H](CC(C)C)C(=O)N[C@@H](C)C(=O)N[C@H](C)C(=O)N(C)[C@@H](CC(C)C)C(=O)N(C)[C@@H](CC(C)C)C(=O)N(C)[C@@H](C(C)C)C(=O)N1C [Compound 5] (cyclo(A[dA][NMeL][NMeL][NMeV][NMeBmt(3-oxo)]V[X2][NMeL]V[NMeL])) has an EC50 (permeabilized HepG2; [3]) greater than 10000 nM, a Ki (Human CypA) of 23 nM and a Ki (Human CypD) of 17 nM. The IC50 [1] was greater than 10000 nM and the IC50 [2] was greater than 10000 nM.
With C/C=C/C[C@@H](C)C(=O)[C@H]1C(=O)N[C@@H](C(C)C)C(=O)N(C)[C@H](OCCN2CCOCC2)C(=O)N(C)[C@@H](CC(C)C)C(=O)N[C@@H](C(C)C)C(=O)N(C)[C@@H](CC(C)C)C(=O)N[C@@H](C)C(=O)N[C@H](C)C(=O)N(C)[C@@H](CC(C)C)C(=O)N(C)[C@@H](CC(C)C)C(=O)N(C)[C@@H](C(C)C)C(=O)N1C [Compound 6] (cyclo(A[dA][NMeL][NMeL][NMeV][NMeBmt(3-oxo)]V[X1][NMeL]V[NMeL])) the EC50 (permeabilized HepG2; [3]) was greater than 10000 nM, the Ki (Human CypA) was 90 nM and the Ki (Human CypD) was 150 nM. For the same compound, the IC50 [1] was greater than 10000 nM and the IC50 [2] was greater than 10000 nM.
C/C=C/C[C@@H](C)[C@@H](O)[C@H]1C(=O)N[C@@H](CCC)C(=O)N(C)[C@H](OCCN(C)C)C(=O)N(C)[C@@H](CC(C)C)C(=O)N[C@@H](C(C)C)C(=O)N(C)[C@@H](CC(C)C)C(=O)N[C@@H](C)C(=O)N[C@H](C)C(=O)N(C)[C@@H](CC(C)C)C(=O)N(C)[C@@H](CC(C)C)C(=O)N(C)[C@@H](C(C)C)C(=O)N1C [Compound 7] (cyclo(A[dA][NMeL][NMeL][NMeV][MeBmt][Nva][X2][NMeL]V[NMeL])) was tested, and the EC50 (permeabilized HepG2; [3]) was 2370 nM, the IC50 [1] was 3220 nM and the IC50 [2] was 789 nM.
Compound C/C=C/C[C@@H](C)[C@@H](O)[C@H]1C(=O)N[C@@H](CCC)C(=O)N(C)[C@H](OCCN2CCOCC2)C(=O)N(C)[C@@H](CC(C)C)C(=O)N[C@@H](C(C)C)C(=O)N(C)[C@@H](CC(C)C)C(=O)N[C@@H](C)C(=O)N[C@H](C)C(=O)N(C)[C@@H](CC(C)C)C(=O)N(C)[C@@H](CC(C)C)C(=O)N(C)[C@@H](C(C)C)C(=O)N1C [Compound 8] (cyclo(A[dA][NMeL][NMeL][NMeV][MeBmt][Nva][X1][NMeL]V[NMeL])) has an EC50 (permeabilized HepG2; [3]) of 1610 nM, an IC50 [1] of 7830 nM and an IC50 [2] of 636 nM.
C/C=C/C[C@@H](C)[C@@H](O)[C@H]1C(=O)N[C@@H](CC)C(=O)N(C)[C@H](OCC/N=C(\C)N(C)C)C(=O)N(C)[C@@H](CC(C)C)C(=O)N[C@@H](C(C)C)C(=O)N(C)[C@@H](CC(C)C)C(=O)N[C@@H](C)C(=O)N[C@H](C)C(=O)N(C)[C@@H](CC(C)C)C(=O)N(C)[C@@H](CC(C)C)C(=O)N(C)[C@@H](C(C)C)C(=O)N1C [Compound 9] was tested, and the EC50 (permeabilized HepG2; [3]) was 468 nM, the Ki (Human CypA) was 11 nM and the Ki (Human CypD) was 8.2 nM. For the same compound, the IC50 [1] was 3880 nM and the IC50 [2] was 2020 nM.
C/C=C/C[C@@H](C)[C@@H](O)[C@H]1C(=O)N[C@@H](CC)C(=O)N(C)[C@H](OCC/N=C/N(C)C)C(=O)N(C)[C@@H](CC(C)C)C(=O)N[C@@H](C(C)C)C(=O)N(C)[C@@H](CC(C)C)C(=O)N[C@@H](C)C(=O)N[C@H](C)C(=O)N(C)[C@@H](CC(C)C)C(=O)N(C)[C@@H](CC(C)C)C(=O)N(C)[C@@H](C(C)C)C(=O)N1C [Compound 10] gave an EC50 (permeabilized HepG2; [3]) of 3200 nM, a Ki (Human CypA) of 14 nM and a Ki (Human CypD) of 9.7 nM. The IC50 [1] was 3710 nM and the IC50 [2] was 1830 nM.
Work on C/C=C/C[C@@H](C)[C@@H](O)[C@H]1C(=O)N[C@@H](CC)C(=O)N(C)[C@H](OCC(C)(C)N(C)C)C(=O)N(C)[C@@H](CC(C)C)C(=O)N[C@@H](C(C)C)C(=O)N(C)[C@@H](CC(C)C)C(=O)N[C@@H](C)C(=O)N[C@H](C)C(=O)N(C)[C@@H](CC(C)C)C(=O)N(C)[C@@H](CC(C)C)C(=O)N(C)[C@@H](C(C)C)C(=O)N1C [Compound 11] yielded an EC50 (permeabilized HepG2; [3]) of 3320 nM, a Ki (Human CypA) of 25 nM and a Ki (Human CypD) of 6 nM. It also gave an IC50 [1] of 1620 nM and an IC50 [2] of 616 nM.
For C/C=C/C[C@@H](C)[C@@H](O)[C@H]1C(=O)N[C@@H](CC)C(=O)N(C)[C@H](OCC2(N(C)C)CC2)C(=O)N(C)[C@@H](CC(C)C)C(=O)N[C@@H](C(C)C)C(=O)N(C)[C@@H](CC(C)C)C(=O)N[C@@H](C)C(=O)N[C@H](C)C(=O)N(C)[C@@H](CC(C)C)C(=O)N(C)[C@@H](CC(C)C)C(=O)N(C)[C@@H](C(C)C)C(=O)N1C [Compound 12], the Ki (Human CypA) was 6.5 nM and the Ki (Human CypD) was 6 nM.
